Measured values reported in ChEMBL document CHEMBL1201862, “PubChem BioAssay data set” (2004).
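Where inhibition never reached the appropriate level, the endpoint shown equals the highest concentration tested. Otherwise, values were interpolated linearly from a five-concentration, 48-hour dose response in 96-well plates. GI50 = concentration required for 50% inhibition of growth.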 Calls of active or inactive are those of the source. Rule as the data show it: active = GI50 up to about 1.1 µM and inactive = higher.

Legend:
Assay in all cases: DTP human tumour cell line panel, 48 h
786-0 = test system: 786-0
A498 = test system: A498
A549 = test system: A549
ACHN = test system: ACHN
BT-549 = test system: BT-549
CAKI-1 = test system: CAKI-1
CCRF-CEM = test system: CCRF-CEM
COLO 205 = test system: COLO 205
DU-145 = test system: DU-145
EKVX = test system: EKVX
HCC 2998 = test system: HCC 2998
HCT-116 = test system: HCT-116
HCT-15 = test system: HCT-15
HL-60 = test system: HL-60
HOP-62 = test system: HOP-62
HOP-92 = test system: HOP-92
HT-29 = test system: HT-29
Hs-578T = test system: Hs-578T
IGROV-1 = test system: IGROV-1
K562 = test system: K562
KM12 = test system: KM12
LOX IMVI = test system: LOX IMVI
M14 = test system: M14
MCF7 = test system: MCF7
MDA-MB-231 = test system: MDA-MB-231
MDA-MB-435 = test system: MDA-MB-435
MDA-N = test system: MDA-N
MOLT-4 = test system: MOLT-4
Malme-3M = test system: Malme-3M
NCI-H226 = test system: NCI-H226
NCI-H23 = test system: NCI-H23
NCI-H460 = test system: NCI-H460
NCI-H522 = test system: NCI-H522
NCI/ADR-RES = test system: NCI/ADR-RES
OVCAR-3 = test system: OVCAR-3
OVCAR-4 = test system: OVCAR-4
OVCAR-5 = test system: OVCAR-5
OVCAR-8 = test system: OVCAR-8
PC-3 = test system: PC-3
RPMI-8226 = test system: RPMI-8226
RXF 393 = test system: RXF 393
SF-268 = test system: SF-268
SF-295 = test system: SF-295
SF-539 = test system: SF-539
SK-MEL-28 = test system: SK-MEL-28
SK-MEL-2 = test system: SK-MEL-2
SK-MEL-5 = test system: SK-MEL-5
SK-OV-3 = test system: SK-OV-3
SN12C = test system: SN12C
SNB-19 = test system: SNB-19
SNB-75 = test system: SNB-75
SR = test system: SR
SW-620 = test system: SW-620
T47D = test system: T47D
TK-10 = test system: TK-10
U-251 = test system: U-251
UACC-257 = test system: UACC-257
UACC-62 = test system: UACC-62
UO-31 = test system: UO-31

COc1ccc(/N=C/C=C/Nc2ccc(OC)cc2)cc1
GI50 (786-0): 4 µM (inactive) | GI50 (A498): 14 µM (inactive) | GI50 (A549): 12.1 µM (inactive) | GI50 (ACHN): 15.6 µM (inactive) | GI50 (BT-549): 4.18 µM (inactive) | GI50 (CAKI-1): 3.78 µM (inactive) | GI50 (CCRF-CEM): 6.28 µM (inactive) | GI50 (COLO 205): 3.99 µM (inactive) | GI50 (DU-145): 18.7 µM (inactive) | GI50 (EKVX): 15.7 µM (inactive) | GI50 (HCC 2998): 8.45 µM (inactive) | GI50 (HCT-116): 3.66 µM (inactive) | GI50 (HCT-15): 4.65 µM | GI50 (HL-60): 2.87 µM (inactive) | GI50 (HOP-62): 5.78 µM (inactive) | GI50 (HOP-92): 15.3 µM (inactive) | GI50 (HT-29): 2.88 µM (inactive) | GI50 (Hs-578T): 17.5 µM (inactive) | GI50 (IGROV-1): 11.6 µM (inactive) | GI50 (K562): 8.13 µM (inactive) | GI50 (KM12): 4.54 µM (inactive) | GI50 (LOX IMVI): 2.44 µM (inactive) | GI50 (M14): 11 µM (inactive) | GI50 (MCF7): 4.75 µM (inactive) | GI50 (MDA-MB-231): 2.38 µM (inactive) | GI50 (MDA-MB-435): 9.27 µM (inactive) | GI50 (MDA-N): 4.78 µM (inactive) | GI50 (MOLT-4): 4.51 µM (inactive) | GI50 (Malme-3M): 11.4 µM (inactive) | GI50 (NCI-H226): 17.5 µM (inactive) | GI50 (NCI-H23): 19.6 µM (inactive) | GI50 (NCI-H460): 13.3 µM (inactive) | GI50 (NCI-H522): 5.42 µM (inactive) | GI50 (NCI/ADR-RES): 6.95 µM (inactive) | GI50 (OVCAR-3): 1.84 µM (inactive) | GI50 (OVCAR-4): 5.24 µM (inactive) | GI50 (OVCAR-5): 15.5 µM (inactive) | GI50 (OVCAR-8): 3.3 µM (inactive) | GI50 (PC-3): 12 µM (inactive) | GI50 (RPMI-8226): 8.81 µM (inactive) | GI50 (RXF 393): 7.67 µM (inactive) | GI50 (SF-268): 7.43 µM (inactive) | GI50 (SF-295): 7.98 µM (inactive) | GI50 (SF-539): 9.64 µM (inactive) | GI50 (SK-MEL-28): 15.2 µM (inactive) | GI50 (SK-MEL-2): 16.4 µM (inactive) | GI50 (SK-MEL-5): 4.66 µM (inactive) | GI50 (SK-OV-3): 19.7 µM (inactive) | GI50 (SN12C): 3.9 µM (inactive) | GI50 (SNB-19): 3.43 µM (inactive) | GI50 (SNB-75): 16.9 µM (inactive) | GI50 (SR): 3.85 µM (inactive) | GI50 (SW-620): 2.69 µM (inactive) | GI50 (T47D): 15 µM (inactive) | GI50 (TK-10): 11.8 µM (inactive) | GI50 (U-251): 5.35 µM (inactive) | GI50 (UACC-257): 7.35 µM (inactive) | GI50 (UACC-62): 13.7 µM (inactive) | GI50 (UO-31): 5.64 µM (inactive)

Cc1nc2ccccc2n1CCc1nc2ccccc2s1
GI50 (786-0): 42.7 µM (inactive) | GI50 (A498): 14.8 µM (inactive) | GI50 (A549): 23.8 µM (inactive) | GI50 (ACHN): 20 µM (inactive) | GI50 (BT-549): > 100 µM (inactive) | GI50 (CAKI-1): > 100 µM (inactive) | GI50 (CCRF-CEM): 14 µM (inactive) | GI50 (COLO 205): 26.9 µM (inactive) | GI50 (DU-145): 70.5 µM (inactive) | GI50 (EKVX): 7.23 µM (inactive) | GI50 (HCC 2998): 38.3 µM (inactive) | GI50 (HCT-116): 25.9 µM (inactive) | GI50 (HCT-15): 87.7 µM | GI50 (HL-60): 14.3 µM (inactive) | GI50 (HOP-62): > 100 µM (inactive) | GI50 (HOP-92): 32.9 µM (inactive) | GI50 (HT-29): 21.1 µM (inactive) | GI50 (Hs-578T): 53.6 µM (inactive) | GI50 (IGROV-1): > 100 µM (inactive) | GI50 (K562): 11 µM (inactive) | GI50 (KM12): 56.1 µM (inactive) | GI50 (LOX IMVI): 64.9 µM (inactive) | GI50 (M14): 33 µM (inactive) | GI50 (MCF7): 16.6 µM (inactive) | GI50 (MDA-MB-231): 39.6 µM (inactive) | GI50 (MDA-MB-435): 57.8 µM (inactive) | GI50 (MDA-N): 48.9 µM (inactive) | GI50 (MOLT-4): 12.9 µM (inactive) | GI50 (Malme-3M): 17.3 µM (inactive) | GI50 (NCI-H226): 0.857 µM (active) | GI50 (NCI-H23): 30 µM (inactive) | GI50 (NCI-H460): 31.2 µM (inactive) | GI50 (NCI-H522): 15.6 µM (inactive) | GI50 (NCI/ADR-RES): 40.6 µM (inactive) | GI50 (OVCAR-3): 17.8 µM (inactive) | GI50 (OVCAR-4): 42.3 µM (inactive) | GI50 (OVCAR-5): > 100 µM (inactive) | GI50 (OVCAR-8): 41.3 µM (inactive) | GI50 (PC-3): 39.9 µM (inactive) | GI50 (RPMI-8226): 15 µM (inactive) | GI50 (RXF 393): 50 µM (inactive) | GI50 (SF-268): 53.2 µM (inactive) | GI50 (SF-295): 8.49 µM (inactive) | GI50 (SF-539): 35.2 µM (inactive) | GI50 (SK-MEL-28): > 100 µM (inactive) | GI50 (SK-MEL-2): 86.9 µM (inactive) | GI50 (SK-MEL-5): 2.88 µM (inactive) | GI50 (SK-OV-3): > 100 µM (inactive) | GI50 (SN12C): > 100 µM (inactive) | GI50 (SNB-19): > 100 µM (inactive) | GI50 (SNB-75): 78 µM (inactive) | GI50 (SR): 11.6 µM (inactive) | GI50 (SW-620): 68.9 µM (inactive) | GI50 (T47D): 7.21 µM (inactive) | GI50 (TK-10): 45.4 µM (inactive) | GI50 (U-251): 75 µM (inactive) | GI50 (UACC-257): 9.95 µM (inactive) | GI50 (UACC-62): 60.8 µM (inactive) | GI50 (UO-31): 1.93 µM (inactive)
